Experimental data as given in patent publication US5861405A, “S-substituted 1,3,7-trialkyl-xanthine derivatives” (priority 1994, dated 1999).
“And” between values parts separate entries of the source, which are not always exact repeats. Equal values may be shown once. Read-outs that look alike come from different tables or passages of the source.

What was measured:
[1] = target: rat striatal A2a receptors (Rattus norvegicus, UniProt P30543); test: Radioligand binding, [3H]CGS 21680, rat striatal A2a receptors; design: Rat cerebral cortical membranes and striatal membranes were prepared; from tissue; host or cells: rat striatal membranes; details: for potency or selectivity in binding, in words: rat A1 and A2 binding; for A2-selectivity: rat brain binding, this study
Method: (§1) The 1,3,7-trialkyl-8-substituted xanthine compounds of the present invention were tested in a radioligand binding assay for affinity at adenosine receptors in rat brain membranes.
The stock solutions were diluted with DMSO to a concentration of ≥0.1 mM prior to adding to the aqueous medium. The final concentration of DMSO in the assay medium was generally 2%.
Test drugs were dissolved in DMSO and added in 10 μl aliquots, resulting in a final DMSO concentration of 2%. Non-specific binding was defined using 20 μM 2-chloroadenosine. Filtration was carried out using a Brandel Cell Harvester, as above, using Tris HCl/MgCl2 as the washing buffer.
(§2) At least six different concentrations spanning three orders of magnitude, adjusted appropriately for the IC50 of each compound, were used.

[2] = target: T1, rat A1 cortical receptors (Rattus norvegicus, UniProt P25099); test: Radioligand binding, [3H]N6-phenylisopropyladenosine ([3H]PIA), rat cortical A1 receptors; details: for Ki: vs [3H]PIA (1 nM), read-out: Ki (A1); for inhibition at 10 µM: at 10^-5
T1 construct: Rat cerebral cortical membranes and striatal membranes were prepared; from tissue; host or cells: rat cerebral cortex membranes
T1 sequence (P25099 1-326): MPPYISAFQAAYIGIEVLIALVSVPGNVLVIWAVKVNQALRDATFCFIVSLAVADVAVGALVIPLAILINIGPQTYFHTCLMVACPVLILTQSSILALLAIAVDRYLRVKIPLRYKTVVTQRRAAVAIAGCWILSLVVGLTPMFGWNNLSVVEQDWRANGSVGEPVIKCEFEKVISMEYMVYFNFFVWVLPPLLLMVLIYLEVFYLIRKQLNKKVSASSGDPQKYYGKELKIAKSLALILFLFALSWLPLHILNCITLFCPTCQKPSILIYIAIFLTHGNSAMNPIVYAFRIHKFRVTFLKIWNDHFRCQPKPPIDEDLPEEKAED
Method: as §1
The final concentration of DMSO in the assay medium was generally 2%.
Membranes (~100 μg protein per tube) were incubated for 1.5 h at 37° C. in a total volume of 0.5 ml of 50 mM Tris hydrochloride, at pH 7.4. Test drugs were dissolved in DMSO and added in 10 μl aliquots, resulting in a final DMSO concentration of 2%. Bound and free radioligand were separated by addition of 3 ml of a buffer containing 50 mM Tris hydrochloride, pH 7.4, at 5° C., followed by vacuum filtration using a Brandel Cell Harvester (Brandel, Gaithersburg, Md.) and a Whatman GF/B glass fiber filter with additional washes totaling 9 ml of buffer. Non-specific binding was determined with 10 μM 2-chloroadenosine.
as §2

[3] = Table III, vs [3H]CGS21680 (5 nM), read-out: Ki (A2)
[4] = Table I, vs [3H]CGS21680 (5 nM), rat striatal A2 receptors, read-out: Ki (A2a)
[5] = vs [3H]CGS 21680, read-out: Ki value / affinity at A2 receptors
[6] = 1.5 h, vs [3H]PIA, read-out: Percent displacement of specific binding (A1)

Chain of rat striatal A2a receptors (P30543 whole entry): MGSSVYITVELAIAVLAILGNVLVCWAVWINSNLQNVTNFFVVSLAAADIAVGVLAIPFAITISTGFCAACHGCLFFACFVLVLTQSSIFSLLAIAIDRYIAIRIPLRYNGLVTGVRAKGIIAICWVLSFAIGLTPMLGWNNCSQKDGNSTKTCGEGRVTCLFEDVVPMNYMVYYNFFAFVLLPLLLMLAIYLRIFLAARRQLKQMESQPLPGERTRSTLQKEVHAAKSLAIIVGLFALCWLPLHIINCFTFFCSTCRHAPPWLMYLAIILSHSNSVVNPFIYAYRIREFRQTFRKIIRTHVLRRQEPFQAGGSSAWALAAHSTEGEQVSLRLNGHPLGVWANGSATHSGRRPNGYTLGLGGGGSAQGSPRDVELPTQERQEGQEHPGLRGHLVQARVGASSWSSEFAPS

Compound | A1/A2a ratio ([1]; Table I, ratio of Ki values) | Ki [1, 4] [µM] | Ki ([2]; Table I, rat A1 receptors) [µM] | other results
Cn1c(=O)c2c(nc(/C=C/C(=O)Nc3ccccc3)n2C)n(C)c1=O [C(O)NH-phenyl(Rβ = H)] |  |  |  | A1/A2 ratio ([1]; Table III): 19.8; Ki [1, 3]: 2.53 µM; Ki ([2]; Table III): 50 µM
Cn1c(=O)c2c(nc(/C=C/C(=O)OC(C)(C)C)n2C)n(C)c1=O [C(O)OC(CH3)3 (Rβ = H), 8-(trans-2-tert-Butyloxycarbonylvinyl)-1,3,7-trimethylxanthine] |  |  |  | A1/A2 ratio ([1]; Table III): 31; Ki [1, 3]: 0.59 µM; Ki ([2]; Table III): 18 µM
Cn1c(=O)c2c(nc(/C=C/C(=O)O)n2C)n(C)c1=O [C(O)OH(Rβ = H), 8-(trans-2-Carboxyvinyl)-1,3,7-trimethylxanthine] |  |  |  | A1/A2 ratio ([1]; Table III): > 3; Ki [1, 3]: 30 µM; Ki ([2]; Table III): > 100 µM
Cn1c(=O)c2[nH]c(/C=C/c3ccccc3)nc2n(C)c1=O [Compound 15a] | 2.3 | 0.291 ± 0.04 | 0.654 ± 0.17 | potency or selectivity in binding, in words [1]: non-selective
Cn1c(=O)c2c(nc(/C=C/c3ccccc3)n2C)n(C)c1=O [Compound 15b] |  |  | 3.89 | 
Cn1c(=O)c2[nH]c(/C(F)=C/c3ccccc3)nc2n(C)c1=O [Compound 16] | 1.4 | 2.11 | 2.19 | 
COc1ccccc1/C=C/c1nc2c([nH]1)c(=O)n(C)c(=O)n2C [Compound 17a, 1,3-Dimethyl-8-(2-methoxystyryl)xanthine] | 2.7 | 0.645 ± 0.144 | 1.73 | 
COc1ccccc1/C=C/c1nc2c(c(=O)n(C)c(=O)n2C)n1C [Compound 17b, 1,3,7-Trimethyl-8-(2-methoxystyryl)xanthine] | 18 | 0.267 ± 0.084 | 4.76 | 
Cn1c(=O)c2[nH]c(/C=C/c3cccc(O)c3)nc2n(C)c1=O [Compound 18] | 2.4 | 0.303 ± 0.055 | 0.702 ± 0.04 | potency or selectivity in binding, in words [1]: equipotent with the methoxy compound, 19b, at A2 -receptors and more potent at A1 -receptors
COc1cccc(/C=C/c2nc3c([nH]2)c(=O)n(C)c(=O)n3C)c1 [Compound 19a] | 4.8 | 0.378 ± 0.155 | 1.83 | 
COc1cccc(/C=C/c2nc3c(c(=O)n(C)c(=O)n3C)n2C)c1 [Compound 19b] | 64 | 0.0848 ± 0.024 | 5.43 | Ki [1, 5]: 0.085 µM
Cn1c(=O)c2[nH]c(/C=C/c3cccc(C(F)(F)F)c3)nc2n(C)c1=O [Compound 20a, 1,3-Dimethyl-8-(3-trifluoromethylstyryl)xanthine] | 2.6 | 0.343 ± 0.058 | 0.881 ± 0.251 | 
Cn1c(=O)c2c(nc(/C=C/c3cccc(C(F)(F)F)c3)n2C)n(C)c1=O [Compound 20b, 1,3,7-Trimethyl-8-(3-trifluoromethylstyryl)xanthine] | 25 | 0.134 ± 0.044 | 3.33 | 
Cn1c(=O)c2[nH]c(/C=C/c3cccc([N+](=O)[O-])c3)nc2n(C)c1=O [Compound 21a, 1,3-Dimethyl-8-(3-nitrostyryl)xanthine] | 2.4 | 0.438 ± 0.106 | 1.06 | 
Cn1c(=O)c2c(nc(/C=C/c3cccc([N+](=O)[O-])c3)n2C)n(C)c1=O [Compound 21b, 1,3,7-Trimethyl-8-(3-nitrostyryl)xanthine] | 11 | 0.195 ± 0.044 | 2.14 | 
Cn1c(=O)c2[nH]c(/C=C/c3cccc(N)c3)nc2n(C)c1=O [Compound 22a, 1,3-Dimethyl-8-(3-aminostyryl)xanthine] | 1.4 | 0.202 ± 0.079 | 0.288 ± 0.06 | 
Cn1c(=O)c2c(nc(/C=C/c3cccc(N)c3)n2C)n(C)c1=O [Compound 22b, 1,3,7-Trimethyl-8-(3-aminostyryl)xanthine] | 30 | 0.057 ± 0.003 | 1.69 | A2-selectivity [1]: 30 fold
CC(=O)Nc1cccc(/C=C/c2nc3c(c(=O)n(C)c(=O)n3C)n2C)c1 [Compound 23, 1,3,7-Trimethyl-8-(3-acetylaminostyryl)xanthine] | 240 | 0.039 ± 0.021 | 9.47 | Ki [1, 5]: 0.039 µM and ≤ 0.05 µM
Cn1c(=O)c2c(nc(/C=C/c3cccc(NC(=O)OC(C)(C)C)c3)n2C)n(C)c1=O [Compound 25, 1,3,7-Trimethyl-8-(3-tert-butyloxycarbonylaminostyryl)xanthine] |  | 0.784 ± 0.1 |  | 
Cn1c(=O)c2c(nc(/C=C/c3cccc(N(C(=O)OC(C)(C)C)C(=O)OC(C)(C)C)c3)n2C)n(C)c1=O [Compound 26, 1,3,7-Trimethyl-8-[3-[di-(tert-butyloxycarbonyl)amino]styryl]xanthine] | 15 | 0.74 ± 0.077 | 10.8 | reduction of potency at A2-receptors ([1]; very bulky 3-position substituents): roughly 20 fold
Cn1c(=O)c2[nH]c(/C=C/c3cccc(F)c3)nc2n(C)c1=O [Compound 27a] | 5.3 | 0.516 ± 0.099 | 2.72 | 

Compound | A1/A2a ratio ([1]; Table I, ratio of Ki values) | Ki [1, 4] [µM] | Ki ([2]; Table I, rat A1 receptors) [µM] | other results
Cn1c(=O)c2c(nc(/C=C/c3cccc(F)c3)n2C)n(C)c1=O [Compound 27b] | 190 | 0.083 ± 0.018 | 15.8 | A2-selectivity [1]: ≥ 200 fold
Cn1c(=O)c2c(nc(/C=C/c3cccc(Br)c3)n2C)n(C)c1=O [Compound 28b] | 120 | 0.0292 ± 0.0031 | 3.52 | 
Cn1c(=O)c2c(nc(/C=C/c3cccc(I)c3)n2C)n(C)c1=O [Compound 28c] | 61 | 0.0386 ± 0.0125 | 2.37 | 
Cn1c(=O)c2c(nc(/C=C/c3cccc([N+]#N)c3)n2C)n(C)c1=O [Compound 28d] | 46 | 0.0648 ± 0.0196 | 2.99 | 
COc1ccc(/C=C/c2nc3c([nH]2)c(=O)n(C)c(=O)n3C)cc1 [Compound 29a, 1,3-Dimethyl-8-(4-methoxystyryl)xanthine] | 1.8 | 0.472 ± 0.132 | 0.858 ± 0.32 | 
COc1ccc(/C=C/c2nc3c(c(=O)n(C)c(=O)n3C)n2C)cc1 [Compound 29b, 1,3,7-Trimethyl-8-(4-methoxystyryl)xanthine] | 44 | 0.327 ± 0.075 | 14.2 | 
CN(C)c1ccc(/C=C/c2nc3c([nH]2)c(=O)n(C)c(=O)n3C)cc1 [Compound 30a, 1,3-Dimethyl-8-(4-dimethylaminostyryl)xanthine] | 0.24 | 12.8 | 3.03 | 
CN(C)c1ccc(/C=C/c2nc3c(c(=O)n(C)c(=O)n3C)n2C)cc1 [Compound 30b] | > 1 | 9.27 |  | potency or selectivity in binding, in words [1]: displayed A2 -selectivity; inhibition at 30 µM ([2]; 1.5 h, at 3 × 10^-5, vs [3H]PIA, read-out: Percent displacement of specific binding (A1)): 5.6%
COc1cccc(/C=C/c2nc3c([nH]2)c(=O)n(C)c(=O)n3C)c1OC [Compound 31a, 1,3-Dimethyl-8-(2,3-dimethoxystyryl)xanthine] | 2.7 | 0.6 ± 0.204 | 1.6 | 
COc1ccc(/C=C/c2nc3c([nH]2)c(=O)n(C)c(=O)n3C)cc1OC [Compound 32a, 1,3-Dimethyl-8-(3,4-dimethoxystyryl)xanthine] |  | 1.1 | 5.34 | A1/A2a ratio [1]: 48
COc1ccc(/C=C/c2nc3c(c(=O)n(C)c(=O)n3C)n2C)cc1OC [Compound 32b, 1,3,7-Trimethyl-8-(3,4-dimethoxystyryl)xanthine] |  | 0.197 ± 0.033 | 13.8 | A1/A2a ratio ([1]; rat, brain membranes): 70
COc1cc(/C=C/c2nc3c([nH]2)c(=O)n(C)c(=O)n3C)cc(OC)c1 [Compound 33a, 1,3-Dimethyl-8-(3,5-dimethoxystyryl)xanthine] | 25 | 0.12 ± 0.036 | 3.04 | 
COc1cc(/C=C/c2nc3c(c(=O)n(C)c(=O)n3C)n2C)cc(OC)c1 [Compound 33b, 1,3,7-Trimethyl-8-(3,5-dimethoxystyryl)xanthine] | > 200 | 0.0753 ± 0.0291 |  | inhibition at 10 µM [2, 6]: 12.5 ± 6.3%
Cn1c(=O)c2[nH]c(/C=C/c3cc(F)cc(F)c3)nc2n(C)c1=O [Compound 34a] | 6.4 | 0.366 ± 0.077 | 2.33 | 
Cn1c(=O)c2c(nc(/C=C/c3cc(F)cc(F)c3)n2C)n(C)c1=O [Compound 34b] | 230 | 0.065 ± 0.009 | 14.8 | 
COc1cc(/C=C/c2nc3c(c(=O)n(C)c(=O)n3C)n2C)cc(OC)c1O [Compound 35] | 19 | 0.45 ± 0.066 | 8.7 | potency or selectivity in binding, in words [1]: moderately selective
COc1cc(/C=C/c2nc3c(c(=O)n(C)c(=O)n3C)n2CCc2ccccc2)cc(OC)c1OC [Compound 44f] |  |  |  | inhibition at 10 µM [2, 6]: 32 ± 9%
CCn1c(=O)c2c(nc(/C=C/c3cc(OC)c(OC)c(OC)c3)n2C)n(CC)c1=O [Compound 45b] |  |  | 2.79 | 
CCCn1c(=O)c2c(nc(/C=C/c3cccc(Cl)c3)n2C)n(CCC)c1=O [Compound 51b] |  |  | 0.874 ± 0.222 | 
COc1cccc2cc(-c3nc4c(c(=O)n(C)c(=O)n4C)n3C)oc12 [Compound 58b] |  |  |  | Ki ([1]; Table IV, vs [3H]CGS21680 (5 nM), read-out: Ki (A2)): 4.74 µM
